Drawing on patent US11661426B2, “Imidazole-containing inhibitors of ALK2 kinase” (BioCryst Pharmaceuticals, Inc., priority 2017, dated 2023), this text covers IC50 for 21 compounds.

pIC50: −log10 of the molar value.

For this test, the target named is ALK2 (Homo sapiens (Human), UniProt Q04771). Description: ALK2 inhibition, LanthaScreen Eu Kinase Binding Assay (ThermoFisher Scientific / Life Technologies). The settings on record: read-out: Measured Ki (IC50) Value for Compounds: IC50. The method, then: Biochemical assays to measure the inhibitory effects of the compounds were performed by ThermoFisher Scientific (Life Technologies). ALK2 inhibition was tested using LanthaScreen™ Eu Kinase Binding Assay screening protocol.
Chain of ALK2 (Q04771 21-509): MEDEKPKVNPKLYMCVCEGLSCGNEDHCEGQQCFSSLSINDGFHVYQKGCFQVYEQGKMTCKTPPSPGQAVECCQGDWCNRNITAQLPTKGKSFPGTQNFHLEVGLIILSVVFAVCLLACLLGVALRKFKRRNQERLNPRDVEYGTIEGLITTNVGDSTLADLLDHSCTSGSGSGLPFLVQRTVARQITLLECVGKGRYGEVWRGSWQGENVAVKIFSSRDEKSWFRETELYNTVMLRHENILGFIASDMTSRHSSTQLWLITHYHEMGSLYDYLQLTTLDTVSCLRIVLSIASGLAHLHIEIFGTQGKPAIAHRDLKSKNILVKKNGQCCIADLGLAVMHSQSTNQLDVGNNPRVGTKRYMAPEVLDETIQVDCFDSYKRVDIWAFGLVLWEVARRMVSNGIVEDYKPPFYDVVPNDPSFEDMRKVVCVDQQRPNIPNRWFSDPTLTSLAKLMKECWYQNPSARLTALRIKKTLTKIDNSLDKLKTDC
(TR-FRET usually uses a lanthanide donor and a delayed reading to cut background.)
As to `COc1cc(-n2cnc(Nc3nc(N4CCC[C@H]4CO)nc4c3cnn4C3CCCCO3)c2)cc(OC)c1OC` (stereo partly drawn) [Compound 326c, ((2S)-1-(1-(tetrahydro-2H-pyran-2-yl)-4-((1-(3,4,5-trimethoxyphenyl)-1H-imidazol-4-yl)amino)-1H-pyrazolo[3,4-d]pyrimidin-6-yl)pyrrolidin-2-yl)methanol], the pIC50 (commonly the IC50 on a negative log10 scale, so that one unit is a factor of ten) is above 7.00.
For the compound `COc1cc(-n2cnc(Nc3nc(N4CCC[C@@H]4CO)c4ccccc4n3)c2)cc(OC)c1OC` [Compound 327b, (R)-(1-(2-((1-(3,4,5-trimethoxyphenyl)-1H-imidazol-4-yl)amino)quinazolin-4-yl)pyrrolidin-2-yl)methanol], the negative logarithm of the IC50 (pIC50) is above 7.00.
As for `COc1cc(-n2cnc(Nc3nc(N4CCC[C@H]4CO)c4c(cnn4C)n3)c2)cc(OC)c1OC` [Compound 328c, (S)-(1-(1-methyl-5-((1-(3,4,5-trimethoxyphenyl)-1H-imidazol-4-yl)amino)-1H-pyrazolo[4,3-d]pyrimidin-7-yl)pyrrolidin-2-yl)methanol], the pIC50 was above 7.00.
As to `COc1cc(-n2cnc(Nc3nc(N4CCC[C@H]4CO)nc4[nH]ncc34)c2)cc(OC)c1OC` [Compound 329a, (S)-(1-(4-((1-(3,4,5-trimethoxyphenyl)-1H-imidazol-4-yl)amino)-1H-pyrazolo[3,4-d]pyrimidin-6-yl)pyrrolidin-2-yl)methanol], the pIC50 was above 7.00.
For the compound `OC[C@@H]1CCCN1c1nc(Nc2cn(-c3cccc(OC(F)(F)F)c3)cn2)c2cccn2n1` [Compound 330b, (S)-(1-(4-((1-(3-(trifluoromethoxy)phenyl)-1H-imidazol-4-yl)amino)pyrrolo[2,1-f][1,2,4]triazin-2-yl)pyrrolidin-2-yl)methanol], the pIC50 is above 7.00.
Take `Cc1cc(OC(F)(F)F)cc(-n2cnc(Nc3nc(N4CCC[C@H]4CO)nn4cccc34)c2)c1` [Compound 331b, (S)-(1-(4-((1-(3-methyl-5-(trifluoromethoxy)phenyl)-1H-imidazol-4-yl)amino)pyrrolo[2,1-f][1,2,4]triazin-2-yl)pyrrolidin-2-yl)methanol]: the pIC50 is above 7.00.
In the case of `COc1cc(-n2cnc(Nc3nc(N4C[C@@H]5C[C@@H]5[C@H]4CO)c4cccn4n3)c2)cc(OC)c1OC` [Compound 332b, ((1S,2S,5R)-3-(2-((1-(3,4,5-trimethoxyphenyl)-1H-imidazol-4-yl)amino)pyrrolo[2,1-f][1,2,4]triazin-4-yl)-3-azabicyclo[3.1.0]hexan-2-yl)methanol], the pIC50 was above 7.00.
As to `COc1cc(-n2cnc(Nc3nc(N4CC[C@H](CO)C4)c4cccn4n3)c2)cc(OC)c1OC` [Compound 333b, (S)-(1-(2-((1-(3,4,5-trimethoxyphenyl)-1H-imidazol-4-yl)amino)pyrrolo[2,1-f][1,2,4]triazin-4-yl)pyrrolidin-3-yl)methanol], the pIC50 is above 7.00.
As to `COc1cc(-n2cnc(Nc3nc(N4CCN(C)CC4)nn4cccc34)c2)cc(OC)c1OC` [Compound 334a, 2-(4-methylpiperazin-1-yl)-N-(1-(3,4,5-trimethoxyphenyl)-1H-imidazol-4-yl)pyrrolo[2,1-f][1,2,4]triazin-4-amine], the pIC50 was above 7.00.
As for `COc1cc(-n2cnc(Nc3nc(N4CCC[C@H]4CO)c4cccc(CN5CCCCC5)c4n3)c2)cc(OC)c1OC` [Compound 335d, (S)-(1-(8-(piperidin-1-ylmethyl)-2-((1-(3,4,5-trimethoxyphenyl)-1H-imidazol-4-yl)amino)quinazolin-4-yl)pyrrolidin-2-yl)methanol], the pIC50 was above 7.00.
Take `COc1cc(-n2cnc(Nc3nc(N4CCC[C@H]4CO)nc4c3cnn4C)c2)cc(OC)c1OC` [Compound 336c, (S)-(1-(1-methyl-4-((1-(3,4,5-trimethoxyphenyl)-1H-imidazol-4-yl)amino)-1H-pyrazolo[3,4-d]pyrimidin-6-yl)pyrrolidin-2-yl)methanol]: the pIC50 is above 7.00.
In the case of `COc1cc(-n2cnc(Nc3nc(N4CCC[C@H]4C(N)=O)nc4c3cnn4C)c2)cc(OC)c1OC` [Compound 337a, (S)-1-(1-methyl-4-((1-(3,4,5-trimethoxyphenyl)-1H-imidazol-4-yl)amino)-1H-pyrazolo[3,4-d]pyrimidin-6-yl)pyrrolidine-2-carboxamide], the pIC50 was above 7.00.
With `COc1cc(-n2cnc(Nc3nc(N4CCC[C@H]4CO)c4cnn(C)c4n3)c2)cc(OC)c1OC` [Compound 338b, (S)-(1-(1-methyl-6-((1-(3,4,5-trimethoxyphenyl)-1H-imidazol-4-yl)amino)-1H-pyrazolo[3,4-d]pyrimidin-4-yl)pyrrolidin-2-yl)methanol] the figure was above 7.00.
In the case of `OC[C@@H]1CCCN1c1nc(Nc2cn(-c3ccc4c(c3)OC(F)(F)O4)cn2)c2occc2n1` [Compound 339e, (S)-(1-(4-(1-(2,2-difluorobenzo[d][1,3]dioxol-5-yl)-1H-imidazol-4-ylamino)furo[3,2-d]pyrimidin-2-yl)pyrrolidin-2-yl)methanol], the pIC50 was 6.00 to 7.00.
As to `COc1cc(-n2cnc(Nc3nc(N4CCC[C@H]4C(N)=O)nc4cccc(F)c34)c2)cc(OC)c1OC` [Compound 340c, (S)-1-(5-fluoro-4-((1-(3,4,5-trimethoxyphenyl)-1H-imidazol-4-yl)amino)quinazolin-2-yl)pyrrolidine-2-carboxamide], the pIC50 was 6.00 to 7.00.
As to `COc1cc(-n2cnc(Nc3nc(N4CCC[C@H]4CO)nc4cccc(F)c34)c2)cc(OC)c1OC` [Compound 341a, (S)-(1-(5-fluoro-4-((1-(3,4,5-trimethoxyphenyl)-1H-imidazol-4-yl)amino)quinazolin-2-yl)pyrrolidin-2-yl)methanol], the pIC50 was above 7.00.
Regarding `COc1cc(-n2cnc(Nc3nc(N4CCC[C@H]4CO)nc4c3COCC4)c2)cc(OC)c1OC` [Compound 342c, (S)-(1-(4-((1-(3,4,5-trimethoxyphenyl)-1H-imidazol-4-yl)amino)-7,8-dihydro-5H-pyrano[4,3-d]pyrimidin-2-yl)pyrrolidin-2-yl)methanol], the negative logarithm of the IC50 (pIC50) is above 7.00.
Take `COc1cc(-n2cnc(Nc3nc4c(c(N5CCC[C@H]5CO)n3)COCC4)c2)cc(OC)c1OC` [Compound 343b, (S)-(1-(2-((1-(3,4,5-trimethoxyphenyl)-1H-imidazol-4-yl)amino)-7,8-dihydro-5H-pyrano[4,3-d]pyrimidin-4-yl)pyrrolidin-2-yl)methanol]: the pIC50 is above 7.00.
With `COc1cc(-n2cnc(Nc3nc(N4CCC[C@H]4CO)nc4cc(Br)ccc34)c2)cc(OC)c1OC` [Compound 344c, (S)-(1-(7-bromo-4-((1-(3,4,5-trimethoxyphenyl)-1H-imidazol-4-yl)amino)quinazolin-2-yl)pyrrolidin-2-yl)methanol], the pIC50 was above 7.00.
Consider `COc1cc(-n2cnc(Nc3nc(N4CCC[C@H]4C(N)=O)nc4cc(C#N)ccc34)c2)cc(OC)c1OC` [Compound 345c, (S)-1-(7-cyano-4-((1-(3,4,5-trimethoxyphenyl)-1H-imidazol-4-yl)amino)quinazolin-2-yl)pyrrolidine-2-carboxamide], for which the pIC50 is above 7.00.
Consider `COc1cc(-n2cnc(Nc3cc4ccccc4c(N4CCC[C@H]4CO)n3)c2)cc(OC)c1OC` [Compound 346c, (S)-(1-(3-((1-(3,4,5-trimethoxyphenyl)-1H-imidazol-4-yl)amino)isoquinolin-1-yl)pyrrolidin-2-yl)methanol], for which the pIC50 was 6.00 to 7.00.
